Results from patent US20230126893A1, “[(1,4,5-TRISUBSTITUTED-1H-PYRAZOL-3-YL)SULFANYL]ACETIC ACID DERIVATIVES, SALTS THEREOF, AND USE THEREOF AS ACTIVE HERBICIDAL INGREDIENTS” (BAYER AKTIENGESELLSCHAFT, priority 2020, published 2023).

Tested on: Alopecurus myosuroides
Experiment: Pre-emergence herbicidal effect against ALOMY
Type: in vivo
Conditions: 1280 g/ha, visual score after 3 weeks, 100% = plants have died, 0% = like control plants
From the text: (§1) 1. Pre-emergence herbicidal effect and crop plant compatibility Seeds of monocotyledonous and dicotyledonous weed plants and crop plants are laid out in sandy loam soil in wood-fibre pots and covered with soil. The compounds of the invention, formulated in the form of wettable powders (WP) or as emulsion concentrates (EC), are then applied to the surface of the covering soil as aqueous suspension or emulsion at a water application rate equating to 600 to 800 L/ha with addition of 0.2% wetting agent. After the treatment, the pots are placed in a greenhouse and kept under good growth conditions for the trial plants. The damage to the test plants is scored visually after a test period of 3 weeks by comparison with untreated controls (herbicidal activity in percent (%): 100% activity=the plants have died, 0% activity=like control plants). [table]

| SMILES | Pre-emergence action against ALOMY [%] |
| --- | --- |
| CCOC(=O)CSc1nn(-c2ccccc2OC)c(-c2ccc(F)cc2)c1Br [Example I-023] | 90 |
| CCOC(=O)CSc1nn(-c2ccccc2F)c(-c2ccc(Cl)nc2)c1Br [II-012] | 90 |
| O=C(O)CSc1nn(-c2ccccc2F)c(-c2cccnc2)c1Br [II-017] | 90 |
| COC(=O)CCNC(=O)CSc1nn(-c2ccccc2F)c(-c2cccnc2)c1Br [VII-006] | 90 |
| COC(=O)CN(C)C(=O)CSc1nn(-c2ccccc2F)c(-c2ccc(F)c(F)c2)c1Br [VII-011] | 90 |

Tested on: Digitaria sanguinalis
Experiment: Pre-emergence herbicidal effect against DIGSA
Type: in vivo
Conditions: 1280 g/ha, visual score after 3 weeks, 100% = plants have died, 0% = like control plants
From the text: as §1

| SMILES | Pre-emergence action against DIGSA [%] |
| --- | --- |
| CCOC(=O)CSc1nn(-c2ccccc2OC)c(-c2ccc(F)cc2)c1Br [Example I-023] | 100 |

Tested on: Echinochloa crus-galli
Experiment: Pre-emergence herbicidal effect against ECHCG
Type: in vivo
Conditions: 1280 g/ha, visual score after 3 weeks, 100% = plants have died, 0% = like control plants
From the text: as §1

| SMILES | Pre-emergence action against ECHCG [%] |
| --- | --- |
| CCOC(=O)CSc1nn(-c2ccccc2F)c(-c2ccc(Cl)nc2)c1Br [II-012] | 90 |
| O=C(O)CSc1nn(-c2ccccc2F)c(-c2cccnc2)c1Br [II-017] | 90 |
| O=C(O)CSc1nn(-c2cccc(F)c2F)c(-c2cncnc2)c1Br [III-005] | 90 |
| COC(=O)CCNC(=O)CSc1nn(-c2ccccc2F)c(-c2cccnc2)c1Br [VII-006] | 90 |

Tested on: Lolium rigidum
Experiment: Pre-emergence herbicidal effect against LOLRI
Type: in vivo
Conditions: 1280 g/ha, visual score after 3 weeks, 100% = plants have died, 0% = like control plants
From the text: as §1

| SMILES | Pre-emergence action against LOLRI [%] |
| --- | --- |
| CCOC(=O)CSc1nn(-c2ccccc2F)c(-c2ccc(Cl)nc2)c1Br [II-012] | 100 |

Tested on: Poa annua
Experiment: Pre-emergence herbicidal effect against POAAN
Type: in vivo
Conditions: 1280 g/ha, visual score after 3 weeks, 100% = plants have died, 0% = like control plants
From the text: as §1

| SMILES | Pre-emergence action against POAAN [%] |
| --- | --- |
| CCOC(=O)CSc1nn(-c2ccccc2OC)c(-c2ccc(F)cc2)c1Br [Example I-023] | 100 |
| CCOC(=O)CSc1nn(-c2ccccc2F)c(-c2ccc(Cl)nc2)c1Br [II-012] | 100 |
| O=C(O)CSc1nn(-c2ccccc2F)c(-c2cccnc2)c1Br [II-017] | 100 |
| O=C(O)CSc1nn(-c2cccc(F)c2F)c(-c2cncnc2)c1Br [III-005] | 100 |
| COC(=O)CCNC(=O)CSc1nn(-c2ccccc2F)c(-c2cccnc2)c1Br [VII-006] | 100 |
| COC(=O)CN(C)C(=O)CSc1nn(-c2ccccc2F)c(-c2ccc(F)c(F)c2)c1Br [VII-011] | 100 |

Tested on: Setaria viridis
Experiment: Pre-emergence herbicidal effect against SETVI
Type: in vivo
Conditions: 1280 g/ha, visual score after 3 weeks, 100% = plants have died, 0% = like control plants
From the text: as §1

| SMILES | Pre-emergence action against SETVI [%] |
| --- | --- |
| CCOC(=O)CSc1nn(-c2ccccc2OC)c(-c2ccc(F)cc2)c1Br [Example I-023] | 90 |
| CCOC(=O)CSc1nn(-c2ccccc2F)c(-c2ccc(Cl)nc2)c1Br [II-012] | 90 |
| O=C(O)CSc1nn(-c2ccccc2F)c(-c2cccnc2)c1Br [II-017] | 90 |
| O=C(O)CSc1nn(-c2cccc(F)c2F)c(-c2cncnc2)c1Br [III-005] | 90 |
| COC(=O)CCNC(=O)CSc1nn(-c2ccccc2F)c(-c2cccnc2)c1Br [VII-006] | 90 |

Tested on: Tripleurospermum inodorum
Experiment: Pre-emergence herbicidal effect against MATIN
Type: in vivo
Conditions: 1280 g/ha, visual score after 3 weeks, 100% = plants have died, 0% = like control plants
From the text: as §1

| SMILES | Pre-emergence action against MATIN [%] |
| --- | --- |
| CCOC(=O)CSc1nn(-c2ccccc2OC)c(-c2ccc(F)cc2)c1Br [Example I-023] | 100 |
| CCOC(=O)CSc1nn(-c2ccccc2F)c(-c2ccc(Cl)nc2)c1Br [II-012] | 100 |
| O=C(O)CSc1nn(-c2ccccc2F)c(-c2cccnc2)c1Br [II-017] | 90 |
| O=C(O)CSc1nn(-c2cccc(F)c2F)c(-c2cncnc2)c1Br [III-005] | 90 |
| COC(=O)CCNC(=O)CSc1nn(-c2ccccc2F)c(-c2cccnc2)c1Br [VII-006] | 90 |
| COC(=O)CN(C)C(=O)CSc1nn(-c2ccccc2F)c(-c2ccc(F)c(F)c2)c1Br [VII-011] | 90 |

Tested on: Stellaria media
Experiment: Pre-emergence herbicidal effect against STEME
Type: in vivo
Conditions: 1280 g/ha, visual score after 3 weeks, 100% = plants have died, 0% = like control plants
From the text: as §1

| SMILES | Pre-emergence action against STEME [%] |
| --- | --- |
| CCOC(=O)CSc1nn(-c2ccccc2OC)c(-c2ccc(F)cc2)c1Br [Example I-023] | 100 |
| CCOC(=O)CSc1nn(-c2ccccc2F)c(-c2ccc(Cl)nc2)c1Br [II-012] | 100 |
| O=C(O)CSc1nn(-c2ccccc2F)c(-c2cccnc2)c1Br [II-017] | 90 |
| O=C(O)CSc1nn(-c2cccc(F)c2F)c(-c2cncnc2)c1Br [III-005] | 90 |
| COC(=O)CCNC(=O)CSc1nn(-c2ccccc2F)c(-c2cccnc2)c1Br [VII-006] | 90 |

Tested on: Veronica persica
Experiment: Pre-emergence herbicidal effect against VERPE
Type: in vivo
Conditions: 1280 g/ha, visual score after 3 weeks, 100% = plants have died, 0% = like control plants
From the text: as §1

| SMILES | Pre-emergence action against VERPE [%] |
| --- | --- |
| CCOC(=O)CSc1nn(-c2ccccc2OC)c(-c2ccc(F)cc2)c1Br [Example I-023] | 100 |
| CCOC(=O)CSc1nn(-c2ccccc2F)c(-c2ccc(Cl)nc2)c1Br [II-012] | 100 |
| O=C(O)CSc1nn(-c2ccccc2F)c(-c2cccnc2)c1Br [II-017] | 100 |
| O=C(O)CSc1nn(-c2cccc(F)c2F)c(-c2cncnc2)c1Br [III-005] | 90 |
| COC(=O)CCNC(=O)CSc1nn(-c2ccccc2F)c(-c2cccnc2)c1Br [VII-006] | 90 |
| COC(=O)CN(C)C(=O)CSc1nn(-c2ccccc2F)c(-c2ccc(F)c(F)c2)c1Br [VII-011] | 90 |

Tested on: Alopecurus myosuroides
Experiment: Post-emergence herbicidal effect against ALOMY
Type: in vivo
Conditions: 1280 g/ha, visual score after about 3 weeks, 100% = plants have died, 0% = like control plants
Method: (§2) [table] 2. Post-emergence herbicidal effect and crop plant compatibility Seeds of monocotyledonous and dicotyledonous weed and crop plants are laid out in sandy loam soil in wood-fibre pots, covered with soil and cultivated in a greenhouse under good growth conditions. 2 to 3 weeks after sowing, the test plants are treated at the one-leaf stage. The compounds of the invention, formulated in the form of wettable powders (WP) or as emulsion concentrates (EC), are then sprayed onto the green parts of the plants as aqueous suspension or emulsion at a water application rate equating to 600 to 800 l/ha with addition of 0.2% wetting agent. After the test plants have been left to stand in the greenhouse under optimal growth conditions for about 3 weeks, the action of the preparations is assessed visually in comparison to untreated controls (herbicidal action in percent (%): 100% activity=the plants have died, 0% activity=like control plants).

| SMILES | Post-emergence action against ALOMY [%] |
| --- | --- |
| CCOC(=O)CSc1nn(-c2ccccc2F)c(-c2ccc(Cl)nc2)c1Br [II-012] | 90 |
| O=C(O)CSc1nn(-c2ccccc2F)c(-c2cccnc2)c1Br [II-017] | 90 |
| COC(=O)CCNC(=O)CSc1nn(-c2ccccc2F)c(-c2cccnc2)c1Br [VII-006] | 90 |
| COC(=O)CN(C)C(=O)CSc1nn(-c2ccccc2F)c(-c2ccc(F)c(F)c2)c1Br [VII-011] | 90 |

Tested on: Echinochloa crus-galli
Experiment: Post-emergence herbicidal effect against ECHCG
Type: in vivo
Conditions: 1280 g/ha, visual score after about 3 weeks, 100% = plants have died, 0% = like control plants
Method: as §2

| SMILES | Post-emergence action against ECHCG [%] |
| --- | --- |
| CCOC(=O)CSc1nn(-c2ccccc2F)c(-c2ccc(Cl)nc2)c1Br [II-012] | 90 |
| O=C(O)CSc1nn(-c2ccccc2F)c(-c2cccnc2)c1Br [II-017] | 90 |
| O=C(O)CSc1nn(-c2cccc(F)c2F)c(-c2cncnc2)c1Br [III-005] | 90 |

Tested on: Poa annua
Experiment: Post-emergence herbicidal effect against POAAN
Type: in vivo
Conditions: 1280 g/ha, visual assessment about 3 weeks after treatment, 100% = plants have died, 0% = like control plants
Method: as §2

| SMILES | Post-emergence action against POAAN [%] |
| --- | --- |
| CCOC(=O)CSc1nn(-c2ccccc2F)c(-c2ccc(Cl)nc2)c1Br [II-012] | 100 |
| O=C(O)CSc1nn(-c2ccccc2F)c(-c2cccnc2)c1Br [II-017] | 100 |
| COC(=O)CCNC(=O)CSc1nn(-c2ccccc2F)c(-c2cccnc2)c1Br [VII-006] | 100 |

Tested on: Setaria viridis
Experiment: Post-emergence herbicidal effect against SETVI
Type: in vivo
Conditions: 1280 g/ha, visual assessment about 3 weeks after treatment, 100% = plants have died, 0% = like control plants
Method: as §2

| SMILES | Post-emergence action against SETVI [%] |
| --- | --- |
| CCOC(=O)CSc1nn(-c2ccccc2F)c(-c2ccc(Cl)nc2)c1Br [II-012] | 90 |
| O=C(O)CSc1nn(-c2ccccc2F)c(-c2cccnc2)c1Br [II-017] | 90 |
| COC(=O)CCNC(=O)CSc1nn(-c2ccccc2F)c(-c2cccnc2)c1Br [VII-006] | 90 |

Tested on: Abutylon threophrasti
Experiment: Post-emergence herbicidal effect against ABUTH
Type: in vivo
Conditions: 1280 g/ha, visual assessment about 3 weeks after treatment, 100% = plants have died, 0% = like control plants
Method: as §2

| SMILES | Post-emergence action against ABUTH [%] |
| --- | --- |
| O=C(O)CSc1nn(-c2cccc(F)c2F)c(-c2cncnc2)c1Br [III-005] | 90 |

Tested on: Bassia scoparia
Experiment: Post-emergence herbicidal effect against KCHSC
Type: in vivo
Conditions: 1280 g/ha, visual assessment about 3 weeks after treatment, 100% = plants have died, 0% = like control plants
Method: as §2

| SMILES | Post-emergence action against KCHSC [%] |
| --- | --- |
| O=C(O)CSc1nn(-c2cccc(F)c2F)c(-c2cncnc2)c1Br [III-005] | 90 |
| COC(=O)CCNC(=O)CSc1nn(-c2ccccc2F)c(-c2cccnc2)c1Br [VII-006] | 90 |
| COC(=O)CN(C)C(=O)CSc1nn(-c2ccccc2F)c(-c2ccc(F)c(F)c2)c1Br [VII-011] | 90 |

Tested on: Tripleurospermum inodorum
Experiment: Post-emergence herbicidal effect against MATIN
Type: in vivo
Conditions: 1280 g/ha, visual assessment about 3 weeks after treatment, 100% = plants have died, 0% = like control plants
Method: as §2

| SMILES | Post-emergence action against MATIN [%] |
| --- | --- |
| CCOC(=O)CSc1nn(-c2ccccc2F)c(-c2ccc(Cl)nc2)c1Br [II-012] | 90 |
| O=C(O)CSc1nn(-c2ccccc2F)c(-c2cccnc2)c1Br [II-017] | 90 |
| O=C(O)CSc1nn(-c2cccc(F)c2F)c(-c2cncnc2)c1Br [III-005] | 90 |
| COC(=O)CCNC(=O)CSc1nn(-c2ccccc2F)c(-c2cccnc2)c1Br [VII-006] | 90 |

Tested on: Veronica persica
Experiment: Post-emergence herbicidal effect against VERPE
Type: in vivo
Conditions: 1280 g/ha, visual assessment about 3 weeks after treatment, 100% = plants have died, 0% = like control plants
Method: as §2

| SMILES | Post-emergence action against VERPE [%] |
| --- | --- |
| CCOC(=O)CSc1nn(-c2ccccc2OC)c(-c2ccc(F)cc2)c1Br [Example I-023] | 90 |
| CCOC(=O)CSc1nn(-c2ccccc2F)c(-c2ccc(Cl)nc2)c1Br [II-012] | 90 |
| O=C(O)CSc1nn(-c2ccccc2F)c(-c2cccnc2)c1Br [II-017] | 90 |
| O=C(O)CSc1nn(-c2cccc(F)c2F)c(-c2cncnc2)c1Br [III-005] | 90 |
| COC(=O)CCNC(=O)CSc1nn(-c2ccccc2F)c(-c2cccnc2)c1Br [VII-006] | 90 |
| COC(=O)CN(C)C(=O)CSc1nn(-c2ccccc2F)c(-c2ccc(F)c(F)c2)c1Br [VII-011] | 90 |
